Data: patent publication US6200985A, “Rapamycin derivatives” (Novartis AG, priority 1995, dated 2001)

Tests used:
[1] = biological target: T1, recombinant human macrophilin-12 (FKBP-12) (Homo sapiens, UniProt P62942); experiment: Macrophilin binding assay (MBA), competitive binding against immobilized FK-506; details: inhibition of biot-MAP binding to immobilized FK-506
T1 construct: biotin (label)
Text: 3. Macrophilin binding assay (MBA)
Rapamycin and the structurally related immunosuppressant, FK-506, are both known to bind in vivo to macrophilin-12 (also known as FK-506 binding protein or FKBP-12), and this binding is thought to be related to the immunosuppressive activity of these compounds. […] In this assay, FK-506 coupled to BSA is used to coat microtiter wells. Biotinylated recombinant human macrophilin-12 (biot-MAP) is allowed to bind in the presence or absence of a test sample to the immobilized FK-506. After washing (to remove non-specifically bound macrophilin), bound biot-MAP is assessed by incubation with a streptavidin-alkaline phosphatase conjugate, followed by washing and subsequent addition of p-nitrophenyl phosphate as a substrate. The read-out is the OD at 405 nm. Binding of a test sample to biot-MAP results in a decrease in the amount of biot-MAP bound to the FK-506 and thus in a decrease in the OD405. A dilution series of the test sample allows determination of the concentration resulting in 50% inhibition of the biot-MAP binding to the immobilized FK-506 (IC50). The inhibitory capacity of a test sample is compared to the IC50 of free FK506 as a standard and expressed as a relative IC50 (i.e., IC50 test sample/IC50 -free FK506).

[2] = system: interleukin-6 (IL-6)-dependent mouse hybridoma cell line; experiment: IL-6 mediated proliferation (IL-6 PROL); type: cell-based; details: inhibition of IL-6 dependent hybridoma proliferation, (3-H)thymidine incorporation; relative to rapamycin
Procedure: 2. IL-6 mediated proliferation (IL-6 PROL)
The capacity of the Compounds of formula I to interfere with growth factor, associated signalling pathways is assessed using an interleukin-6 (IL-6)-dependent mouse hybridoma cell line. The assay is performed in 96-well microtiter plates. […] Following a 66 hour incubation in the absence or presence of a test sample, cells are pulsed with 1 μCi (3-H)thymidine/well for another 6 hours, harvested and counted by liquid scintillation. (3-H)thymidine incorporation into DNA correlates with the increase in cell number and is thus a measure of cell proliferation. […] The inhibitory capacity of the test sample may be compared to rapamycin and expressed as a relative IC50 (i.e. test sample/IC50 rapamycin).

rat kidney allograft = experiment: Chronic allograft rejection, rat kidney allograft model; type: in vivo; details: per os, 0.5 to 2.5 mg/kg, 69-72 days starting day 53-64 after transplantation
Procedure: 10. Chronic Allogaft Rejection
The kidney of a male DA (RT1^a) rat is orthotopically transplanted into a male Lewis (RT1^l) recipient. In total 24 animals are transplanted. All animals are treated with cyclosporine A at 7.5 mg/kg/day per os for 14 days starting on the day of transplantation, to prevent acute cellular rejection. Contralateral nephrectomy is not performed. Each experimental group treated with a distinct dose of a compound of formula I or placebo comprises six animals.
Starting at day 53-64 after transplantation, the recipient animals are treated per os for another 69-72 days with a compound of formula I or receive placebo. At 14 days after transplantation animals are subjected to graft assessment by magnetic resonance imaging (MRI) with perfusion measurement of the kidneys (with comparison of the grafted kidney and the own contralateral kidney). This is repeated at days 53-64 after transplantation and at the end of the experiment. The animals are then autopsied. Rejection parameters such as MRI score, relative perfusion rate of the grafted kidney and histologic score of the kidney allograft for cellular rejection and vessel changes are determined and statistically analyzed.

Balb/c spleen cells = experiment: Mixed lymphocyte reaction (MLR), murine; type: cell-based, mouse; details: inhibition of Balb/c spleen cell proliferation, 5 days co-incubation with irradiated CBA spleen cells; relative to rapamycin
Text: 1. Mixed lymphocyte reaction (MLR)
The Mixed Lymphocyte Reaction was originally developed in connection with allografts, to assess the tissue compatibility between potential organ donors and recipients, and is one of the best established models of immune reaction in vitro. […] The irradiated allogeneic cells induce a proliferative response in the Balb/c spleen cells which can be measured by labeled precursor incorporation into the DNA. […] The inhibitory capacity of the test sample may be compared to rapamycin and expressed as a relative IC50 (i.e. IC50 test sample/IC50 rapamycin).

[3] = system: myointimal proliferation in balloon-injured carotid artery; experiment: Angioplasty (balloon catheterization of the carotid artery); type: in vivo; details: rat, per os, daily dose 0.5 to 2.5 mg/kg, day -3 to day +14
Procedure: Under Isofluorane anaesthesia, a Fogarty 2F catheter is introduced into the left common carotid artery via the external carotid and inflated (distension=10 μl H2 O). The inflated balloon is withdrawn along the length of the common carotid three times, the latter two times whilst twisting gently to obtain a uniform de-endothelialization. The cathether is then removed, a ligature placed around the external carotid to prevent bleeding and the animals allowed to recover.
2 groups of 12 RoRo rats (400 g, approximately 24 weeks old) are used for the study: one control group and one group receiving the compound to be tested. The rats are fully randomized during all handling, experimental procedures and analysis.
The compound to be tested is administered p.o. (gavage) starting 3 days before balloon injury (day -3) until the end of the study, 14 days after balloon injury (day +14). Rats are kept in individual cages and allowed food and water ad libidum. […]
Sections 1-2 μm thick are cut from the middle section of each carotid with a hard metal knife on a rotary microtome and stained for 2 min with Giemse-stain. About 5 sections from each carotid are thus prepared and the cross-sectional areal of the media, neointima and the lumen morphometrically evaluated by means of an image analysis system (MCID, Toronto, Canada).

T1 sequence (P62942 whole entry): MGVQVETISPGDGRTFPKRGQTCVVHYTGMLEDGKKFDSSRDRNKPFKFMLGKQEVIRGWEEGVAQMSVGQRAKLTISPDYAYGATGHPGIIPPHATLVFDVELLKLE

relative IC50 (IC50 test sample/IC50 free FK506) [1]	SMILES	relative IC50 (test sample/IC50 rapamycin) [2]	rejection parameters (MRI score, relative perfusion rate of grafted kidney, histologic score) (rat kidney allograft)	relative IC50 (IC50 test sample/IC50 rapamycin) (Balb/c spleen cells)	myointimal proliferation [3]
25	CO[C@H]1C[C@@H]2CC[C@@H](C)[C@@](O)(O2)C(=O)C(=O)N2CCCC[C@H]2C(=O)O[C@H]([C@H](C)C[C@@H]2CC[C@@H](OCCO)[C@H](OC)C2)C[C@H](O)[C@H](C)/C=C(\C)[C@@H](O)[C@@H](OC)C(=O)[C@H](C)C[C@H](C)/C=C/C=C/C=C/1C [Example 5, (32S)-dihydro40-(2-hydroxy)ethyl-rapamycin]				
2.8	CCC#CCO[C@H]1C[C@@H]2CC[C@@H](C)[C@@](O)(O2)C(=O)C(=O)N2CCCC[C@H]2C(=O)O[C@H]([C@H](C)C[C@@H]2CC[C@@H](O)[C@H](OC)C2)C[C@H](O)[C@H](C)/C=C(\C)[C@@H](O)[C@@H](OC)C(=O)[C@H](C)C[C@H](C)/C=C/C=C/C=C/1C [Example 2, 16-pent-2-ynyloxy-32(S)-dihydro rapamycin]	0.09	reduction in all above mentioned rejection parameters	0.08	inhibit myointimal proliferation

SMILES	relative IC50 (IC50 test sample/IC50 free FK506) [1]	relative IC50 (test sample/IC50 rapamycin) [2]	rejection parameters (MRI score, relative perfusion rate of grafted kidney, histologic score) (rat kidney allograft)	relative IC50 (IC50 test sample/IC50 rapamycin) (Balb/c spleen cells)	myointimal proliferation [3]
CO[C@H]1C[C@@H]2CC[C@@H](C)[C@@](O)(O2)C(=O)C(=O)N2CCCC[C@H]2C(=O)O[C@H]([C@H](C)C[C@@H]2CC[C@@H](O)[C@H](OC)C2)CC[C@H](C)/C=C(\C)[C@@H](O)[C@@H](OC)C(=O)[C@H](C)C[C@H](C)/C=C/C=C/C=C/1C [Example 1, 32-Deoxorapamycin]	1	0.2	reduction in all above mentioned rejection parameters	0.3	inhibit myointimal proliferation
